In publication PMC10480161, “Identification of potent and selective N-myristoyltransferase inhibitors of Plasmodium vivax liver stage hypnozoites and schizonts” (Nature Communications, 2023):
pIC50: −log10 of the molar value. Where “and” joins values, the source holds several entries; their conditions need not be identical. Equal values may be shown once. Read-outs that look alike come from different tables or passages of the source.

Legend:
PvNMT = PvNMT (Plasmodium vivax, UniProt A5K1A2); experiment: NMT activity assay (CPM detection of free CoA), PvNMT; conditions: for SI: enzyme selectivity, HsNMT IC50/PvNMT IC50
HepG2 cells = experiment: HepG2 cytotoxicity assay (Live/Dead staining); conditions: for Percentage of live HepG2 cells compared with diluent controls: replicates
Outline: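 HepG2 cells (5000/well) treated with compounds at 1 to 20 µM, re-dosed with fresh compound every 24 h. Viability scored at 72 h by calcein-AM/ethidium homodimer (1 µM each, 10 min, 37 °C) live/dead staining under fluorescence microscopy.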

P. vivax schizonts = experiment: P. vivax liver stage assay, schizonts; format: cell-based, Plasmodium vivax; conditions: for Number of liverstage Schizonts per well: 20 µM, 8 dpi; for pIC50: primary human hepatocytes, treatment day 5 to 8 post-infection, isolates 2 and 3
Outline: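 Primary human hepatocytes (single donor, 25,000/well) infected with 14,000 P. vivax sporozoites per well from patient isolates; compounds (up to 20 µM) given daily from day 5 to day 8 post-infection. Schizonts counted by PvUIS4/DAPI confocal imaging; DAPI nuclei count used as toxicity measure.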

P. vivax hypnozoites = experiment: P. vivax liver stage assay, hypnozoites; format: cell-based, Plasmodium vivax; conditions: for Hypnozoites per well: Isolate 2, replicate wells (Figure 6d); for Number of liverstage hypnozoites per well: 20 µM, 8 dpi; for pIC50: primary human hepatocytes, treatment day 5 to 8 post-infection, isolate 2
Outline: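 Primary human hepatocytes infected with P. vivax sporozoites, then exposed to compound daily from day 5 to day 8 post-infection. Fixed cells stained with DAPI and PvUIS4 antibody; hypnozoites and schizonts counted by confocal imaging. MMV390048 at 20 µM served as schizont-eliminating control.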

HsNMT1 = biological target: T1, HsNMT1 (Homo sapiens, UniProt P30419); experiment: NMT activity assay (CPM detection of free CoA), HsNMT
T1 sequence (P30419 1-496): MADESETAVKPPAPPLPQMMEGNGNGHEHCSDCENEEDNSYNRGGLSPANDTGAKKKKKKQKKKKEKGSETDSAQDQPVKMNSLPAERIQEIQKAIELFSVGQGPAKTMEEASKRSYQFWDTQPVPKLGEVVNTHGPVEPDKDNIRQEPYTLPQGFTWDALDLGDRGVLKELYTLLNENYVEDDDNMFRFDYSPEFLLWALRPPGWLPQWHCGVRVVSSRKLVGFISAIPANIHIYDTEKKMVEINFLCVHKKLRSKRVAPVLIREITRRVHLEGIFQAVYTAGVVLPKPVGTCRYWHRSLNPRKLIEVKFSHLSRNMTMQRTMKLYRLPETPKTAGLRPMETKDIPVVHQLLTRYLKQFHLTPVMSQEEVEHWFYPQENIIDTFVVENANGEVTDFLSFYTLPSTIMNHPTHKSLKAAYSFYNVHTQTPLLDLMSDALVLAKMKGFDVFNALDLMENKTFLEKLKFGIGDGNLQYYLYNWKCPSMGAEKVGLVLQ

[1] = PvNMT IC50, mean of two or more determinations
[2] = isolate 1, technical replicates (Fig. 5b)
[3] = isolate 2, technical replicates (Fig. 5b)
[4] = isolate 3, technical replicates (Fig. 5b)
[5] = Plasmodium vivax, Hepatocyte, 120 h
[6] = isolate 1, technical replicates (Fig. 6C)
[7] = isolate 2, technical replicates (Fig. 6C)
[8] = isolate 3, technical replicates (Fig. 6C)

Sequence of PvNMT (A5K1A2 entry or part of it): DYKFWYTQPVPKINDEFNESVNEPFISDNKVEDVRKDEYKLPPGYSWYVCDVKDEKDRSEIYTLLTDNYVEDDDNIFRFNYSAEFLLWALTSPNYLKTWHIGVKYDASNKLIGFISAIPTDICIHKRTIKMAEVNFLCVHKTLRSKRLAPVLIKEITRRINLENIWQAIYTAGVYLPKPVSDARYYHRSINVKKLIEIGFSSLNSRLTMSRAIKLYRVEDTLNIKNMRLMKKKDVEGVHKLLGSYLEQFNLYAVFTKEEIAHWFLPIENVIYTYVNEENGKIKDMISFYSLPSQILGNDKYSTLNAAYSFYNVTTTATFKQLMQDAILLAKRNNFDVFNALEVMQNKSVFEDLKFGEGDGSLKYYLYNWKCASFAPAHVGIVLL

Compound	SI (PvNMT)	Percentage of live HepG2 cells compared with diluent controls (HepG2 cells; 1 μM)	Percentage of live HepG2 cells compared with diluent controls (HepG2 cells; 2.5 μM)	Percentage of live HepG2 cells compared with diluent controls (HepG2 cells; 5 μM)	Percentage of live HepG2 cells compared with diluent controls (HepG2 cells; 10 μM)	Percentage of live HepG2 cells compared with diluent controls (HepG2 cells; 20 μM)	Number of liverstage Schizonts per well (P. vivax schizonts; [2])	Number of liverstage Schizonts per well (P. vivax schizonts; [3])	Number of liverstage Schizonts per well (P. vivax schizonts; [4])	Schizonts per well (P. vivax schizonts; Isolate 2, 1.25 uM)	Schizonts per well (P. vivax schizonts; Isolate 2, 2.5 uM)	Schizonts per well (P. vivax schizonts; Isolate 2, 5 uM)	Schizonts per well (P. vivax schizonts; Isolate 3, 1.25 uM)	Schizonts per well (P. vivax schizonts; Isolate 3, 2.5 uM)	Schizonts per well (P. vivax schizonts; Isolate 3, 5 uM)	schizonts (fold change to DMSO) mean diff (P. vivax schizonts; isolate 1, 20 µM)	schizonts (fold change to DMSO) mean diff (P. vivax schizonts; isolate 2, 20 µM)	schizonts (fold change to DMSO) mean diff (P. vivax schizonts; isolate 3, 20 µM)	Hypnozoites per well (P. vivax hypnozoites; 1.25 uM)	Hypnozoites per well (P. vivax hypnozoites; 2.5 uM)	further results
Cc1nn(C)c(C)c1CCOc1ccccc1-c1cccc(OCCN(C)C)c1 [Compound 26b]	118.4	97.4196% and 92.7163%	92.7942% and 91.1312%	90.5335% and 86.8176%	83.2575% and 84.0111%	77.3069% and 77.3588%	0 per well (2×) and 5 per well	3 per well and 4 per well and 0 per well	3 per well and 8 per well	12 per well and 19 per well and 15 per well	9 per well and 7 per well and 12 per well	10 per well and 8 per well and 6 per well	11 per well and 13 per well	9 per well and 12 per well	8 per well and 12 per well	0.917	0.8679	0.625	10 and 6 and 12	4 and 8 and 7	pIC50 (PvNMT; [1]): 7.08; Schizonts per well (P. vivax schizonts; Isolate 2, 10 uM): 7 per well and 4 per well and 5 per well; Schizonts per well (P. vivax schizonts; Isolate 3, 10 uM): 6 per well and 11 per well; pIC50 (P. vivax schizonts; [5]): 5.39 to 5.51; Hypnozoites per well (P. vivax hypnozoites; 5 uM): 7 and 5 and 9; Hypnozoites per well (P. vivax hypnozoites; 10 uM): 4 (2×) and 0; Number of liverstage hypnozoites per well (P. vivax hypnozoites; [6]): 1 per well (2×) and 2 per well; Number of liverstage hypnozoites per well (P. vivax hypnozoites; [7]): 3 per well and 1 per well and 2 per well; Number of liverstage hypnozoites per well (P. vivax hypnozoites; [8]): 0 per well; Hypnozoites per well (P. vivax hypnozoites; 20 uM): 3 and 1 and 2; pIC50 (P. vivax hypnozoites; [5]): 5.34; hypnozoites (fold change to DMSO) mean diff (P. vivax hypnozoites; isolate 1, 20 µM): 0.908; hypnozoites (fold change to DMSO) mean diff (P. vivax hypnozoites; isolate 2, 20 µM): 0.793; pIC50 (HsNMT1): 5.01
Cc1nn(C)c(C)c1CCOc1cc(F)ccc1-c1cccc(OCCN(C)C)c1 [Compound 26c]	162.3	106.359% and 107.918%	107.866% and 101.058%	101.681% and 95.3408%	87.7011% and 97.3677%	83.4394% and 83.5174%	0 per well	3 per well and 0 per well (2×)	2 per well and 1 per well	14 per well and 13 per well and 12 per well	10 per well and 15 per well and 13 per well	7 per well and 12 per well and 8 per well	11 per well and 9 per well	6 per well and 10 per well	7 per well and 5 per well	1.000	0.9434	0.8977	7 and 11 and 8	6 and 5 and 7	pIC50 (PvNMT; [1]): 7.53; Schizonts per well (P. vivax schizonts; Isolate 2, 10 uM): 5 per well and 3 per well and 6 per well; Schizonts per well (P. vivax schizonts; Isolate 3, 10 uM): 4 per well and 2 per well; Schizonts per well (P. vivax schizonts; Isolate 3, 20 uM (Fig. 5c-d)): 2 per well and 1 per well; pIC50 (P. vivax schizonts; [5]): 5.38 to 5.55; Hypnozoites per well (P. vivax hypnozoites; 5 uM): 6 (2×) and 3; Hypnozoites per well (P. vivax hypnozoites; 10 uM): 3 and 2 and 7; Number of liverstage hypnozoites per well (P. vivax hypnozoites; [6]): 4 per well and 0 per well (2×); Number of liverstage hypnozoites per well (P. vivax hypnozoites; [7]): 4 per well and 0 per well (2×); Number of liverstage hypnozoites per well (P. vivax hypnozoites; [8]): 0 per well (2×) and 1 per well; Hypnozoites per well (P. vivax hypnozoites; 20 uM): 4 and 0 (2×); pIC50 (P. vivax hypnozoites; [5]): 5.38; hypnozoites (fold change to DMSO) mean diff (P. vivax hypnozoites; isolate 1, 20 µM): 0.923; hypnozoites (fold change to DMSO) mean diff (P. vivax hypnozoites; isolate 2, 20 µM): 0.862; pIC50 (HsNMT1): 5.32
Cc1n[nH]c(C)c1CCOc1cc(F)ccc1-c1cccc(OCCN(C)C)c1 [Compound 26i]	57	96.6401% and 97.1078%	90.0917%	95.2109% and 86.8435%	86.5317% and 90.6634%	79.0479% and 88.1213%	2 per well (2×) and 0 per well	2 per well (2×) and 4 per well	3 per well and 2 per well	14 per well and 13 per well	14 per well and 11 per well and 12 per well	10 per well and 9 per well and 7 per well	12 per well and 13 per well	10 per well and 9 per well	8 per well and 9 per well	0.933	0.8491	0.8295	10 and 7 and 12	7 and 9 and 14	pIC50 (PvNMT; [1]): 6.62; Schizonts per well (P. vivax schizonts; Isolate 2, 20 uM (Fig. 5c-d)): 2 per well and 4 per well; Schizonts per well (P. vivax schizonts; Isolate 3, 20 uM (Fig. 5c-d)): 3 per well and 2 per well; pIC50 (P. vivax schizonts; [5]): 5.28 to 5.48; Hypnozoites per well (P. vivax hypnozoites; 5 uM): 10 and 7 and 12; Hypnozoites per well (P. vivax hypnozoites; 10 uM): 8 and 12 and 14; Number of liverstage hypnozoites per well (P. vivax hypnozoites; [6]): 8 per well and 6 per well (2×); Number of liverstage hypnozoites per well (P. vivax hypnozoites; [7]): 8 per well and 6 per well (2×); Number of liverstage hypnozoites per well (P. vivax hypnozoites; [8]): 0 per well; Hypnozoites per well (P. vivax hypnozoites; 20 uM): 8 and 6 (2×); pIC50 (P. vivax hypnozoites; [5]): 4.96; hypnozoites (fold change to DMSO) mean diff (P. vivax hypnozoites; isolate 1, 20 µM): 1.000; hypnozoites (fold change to DMSO) mean diff (P. vivax hypnozoites; isolate 2, 20 µM): 0.310; pIC50 (HsNMT1): 4.86
Cc1nn(C)c(C)c1CCOc1ccc2ccccc2c1-c1ccnc(N2CCNCC2)c1 [Compound 30a]	269.8	103.422% and 100.304%	101.733% and 94.8731%	94.7431% and 110.101%	109.841% and 95.0809%	87.0514% and 94.4833%	0 per well	2 per well (2×) and 0 per well	4 per well and 0 per well	10 per well and 11 per well and 19 per well	11 per well and 12 per well and 16 per well	6 per well and 8 per well and 11 per well	13 per well and 11 per well	7 per well and 6 per well	8 per well and 4 per well	1.000	0.9245	0.8636	6 and 9 and 13	5 and 0 and 3	pIC50 (PvNMT; read-out: PvNMT IC50, mean of two or more determinations): 7.05; pIC50 (HepG2 cells): < 4.70; Schizonts per well (P. vivax schizonts; Isolate 2, 10 uM): 4 per well and 7 per well and 8 per well; Schizonts per well (P. vivax schizonts; Isolate 3, 10 uM): 5 per well and 7 per well; pIC50 (P. vivax schizonts): 5.37 to 5.54; Hypnozoites per well (P. vivax hypnozoites; 5 uM): 2 (2×) and 0; Hypnozoites per well (P. vivax hypnozoites; 10 uM): 1 and 0 and 2; Number of liverstage hypnozoites per well (P. vivax hypnozoites; [6]): 0 per well; Number of liverstage hypnozoites per well (P. vivax hypnozoites; [7]): 0 per well; Number of liverstage hypnozoites per well (P. vivax hypnozoites; [8]): 0 per well; Hypnozoites per well (P. vivax hypnozoites; 20 uM): 0; hypnozoites (fold change to DMSO) mean diff (P. vivax hypnozoites; isolate 1, 20 µM): 0.954; hypnozoites (fold change to DMSO) mean diff (P. vivax hypnozoites; isolate 2, 20 µM): 1.000; pIC50 (P. vivax hypnozoites): 5.68; pIC50 (HsNMT1; read-out: HsNMT IC50, mean of two or more determinations): 4.62
